Target: enzyme carbonic anhydrase II (Homo sapiens, UniProt P00918)
Conditions: substance as DNA conjugate within the DEL; primer pairs 1a/1b (whole library), 2a/2b (CBS), 3a/3b (Theo); small ΔCq reflects large enrichment

SMILES: Cn1cnc2c1c(=O)[nH]c(=O)n2C [Theo, theobromine]
- enrichment after selection (from ΔCq, difference in qPCR cycle before and after selection): not enriched

— patent publication US20200040326A1, “METHOD FOR PROVIDING A DNA-ENCODED LIBRARY, DNA-ENCODED LIBRARY AND METHOD OF DECODING A DNA-ENCODED LIBRARY” (TU Dresden, priority 2018, published 2020)
